molecular target: T1, human synovial collagenase (Homo sapiens, UniProt P03956); assay: In vitro inhibition of collagenase from human synovial fibroblast culture (synthetic peptide substrate cleavage); assay type: biochemical; details: trypsin-activated procollagenase; 0.5 mmol N-acetyl-L-prolyl-L-leucylglycyl-L-leucyl-L-leucylglycyl ester substrate; borate buffer pH 7.5, CaCl2; 37° C., 1 hour; read-out: Inhibitory activity against human synovial collagenase IC50
T1 construct: endogenous in cells; host or cells: human synovial fibroblast culture; procollagenase partially purified from the culture medium
T1 sequence (P03956 100-469): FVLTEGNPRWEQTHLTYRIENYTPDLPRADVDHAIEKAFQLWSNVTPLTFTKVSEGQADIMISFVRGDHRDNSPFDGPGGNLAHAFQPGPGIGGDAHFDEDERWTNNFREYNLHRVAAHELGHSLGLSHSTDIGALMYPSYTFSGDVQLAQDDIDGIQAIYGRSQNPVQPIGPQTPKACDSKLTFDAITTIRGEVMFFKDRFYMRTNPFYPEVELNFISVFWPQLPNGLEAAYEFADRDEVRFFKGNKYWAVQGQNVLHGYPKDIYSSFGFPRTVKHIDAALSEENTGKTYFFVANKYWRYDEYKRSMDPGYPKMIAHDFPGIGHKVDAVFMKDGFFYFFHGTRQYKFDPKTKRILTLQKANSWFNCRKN
Description: Procollagenase was partially purified from the cell culture medium by negative adsorption on DEAE Sephadex A-50 at pH 8.1 and activated by treatment with tryspin. The inhibitory activity of the present hydroxylamine derivatives was determined using a synthetic substrate, N-acetyl-L-prolyl-L-leucylglycyl-L-leucyl-L-leucylglycyl […], for this collagenase. The enzyme was added to a solution of 0.5 mmol of substrate in 50 mmol of borate buffer (pH 7.5) containing 1 mmol of calcium chloride and a known concentration of peptide derivative. The resulting solution was incubated at 37° C. for 1 hour. Enzyme digestion of the substrate was terminated by the addition of an equal volume of 2% (weight/volume) sodium hydrogen carbonate solution in 50% aqueous methanol containing 0.1% (weight/volume) of picrylsulfonic acid. The solution obtained was incubated at 37° C. for an additional 1 hour in order to allow reaction between the L-leucyl-L-leucyl-glycyl ethyl ester generated by the cleavage of the substrate and the picrylsulfonic acid to give trinitrophenyl-L-leucyl-L-leucylglycyl ethyl ester. The reaction was terminated and stabilized by acidification with IN hydrochloric acid. The concentration of trinitrophenyl-L-leucyl-L-leucylglycyl ethyl ester was determined by spectrophotometry at 335 nm. The IC50 is that concentration of hydroxylamine derivative of formula I of the invention in the enzyme digestion which reduces substrate cleavage to 50% of that achieved by the enzyme alone.

Row | SMILES | IC50 [µM]
1 | CCOC(=O)[C@H](C)NC(=O)[C@H](CCCCNC(=O)CN)NC(=O)[C@@H](CC(=O)NO)CC(C)C [D, N^α -[4-(N-hydroxyamino) 2(R)-isobutylsuccinyl]-N^ε -glycyl-L-lysyl-L-alanine ethyl ester] | 0.03
2 | CCOC(=O)CNC(=O)[C@H](CC(C)C)NC(=O)[C@H](CC(C)C)[C@H](CCCCN1C(=O)c2ccccc2C1=O)C(=O)NO [F, [4-(N-hydroxyamino) 3(S)-phthaloylaminobutyl-2(R)-isobutylsuccinyl]-L-leucylglycine ethyl ester] | 0.012
3 | CC(C)C[C@H](CC(=O)NO)C(=O)NC1CCCCCCCCCCNC1=O (stereo partly drawn) [E, [4-(N-hydroxyamino) 2(R)-isobutylsuccinyl]-3(RS)-aminolaurolactam] | 0.038
4 | CCOC(=O)CNC(=O)[C@H](CC(C)C)NC(=O)C(CC(C)C)CN(O)C=O (mixture of isomers) [C, [N-formyl-N-hydroxy 2(RS)-isobutyl-3-aminopropionyl]-L-leucylglycine ethyl ester] | 0.3

More lines, now with the values ahead:

Row | IC50 [µM] | SMILES
5 | 0.025 | CCOC(=O)CNC(=O)[C@H](CC(C)C)NC(=O)[C@@H](CC(=O)NO)CC(C)C [A, [4-(N-Hydroxyamino) 2(R)-isobutylsuccinyl]-L-leucylglycine ethyl ester]
6 | 0.0085 | CCOC(=O)[C@H](C)NC(=O)[C@H](CC(C)C)NC(=O)[C@@H](CC(=O)NO)CC(C)C [B, [4-(N-hydroxyamino) 2(R)-isobutylsuccinyl]-L-leucyl-L-alanine ethyl ester]

Source: patent publication US4996358A, “Hydroxylamine bearing amino acid derivatives as collagenase inhibitors” (Hoffmann-La Roche Inc., priority 1986, dated 1991)
